Each structure is given as a SMILES string. Values joined by “and” are separate entries in the source; they are usually repeats but may differ in a detail not shown here. Equal values may be shown once.

Experimental findings from patent publication US20130273003A1, “Therapies for Treating Hepatitis C Virus Infection” (priority 2012, published 2013) are described below.

The subject of data set [1] is genotype 1 chronic HCV. The data set is described as follows: ZENITH Phase 2a study: VX-222 in combination with telaprevir (DUAL, QUAD).
The nature of data set [2]: Study VX-222-102 Part A: PK and safety of VX-222 in HCV infected subjects, 3 days. The format is in vivo, human. The procedure: (§1) In Part A of Study 102 subjects were randomized to VX-222 or placebo in a 6:2 (VX-222: placebo) allocation ratio to either Cohort 1, Cohort 2, Cohort 3, or Cohort 4. Subjects enrolled in Cohort 1, Cohort 2, and Cohort 3 were administered 250 mg, 500 mf, or 750 mg VX-222 or placebo twice daily (b.i.d.) for 3 days, respectively. Subjects enrolled in Cohort 4 were administered 1,500 mg VX-222 or placebo once daily (qd) for 3 days. Standard of care treatment, Peg-IFN-alpha-2a and RBV was offered to the subjects at the end of dosing in Part A for up to 48 weeks, if judged appropriate by the physician.
Subjects with genotype 1 chronic hepatitis C infection were exposed to multiple doses of VX-222 or placebo at 250 mg (Cohort 1), 500 mg (Cohort 2), or 750 mg (Cohort 3) b.i.d. for 3 days. […] The majority of the reported adverse events were mild in severity and there were no untoward adverse incidences or trends.
(§2) Study Design a& Population Multicenter, randomized, double-blinded, placebo-controlled, dose-ranging study HCV genotype 1-infected patients With no evidence of cirrhosis ALT values<5×ULM Plasma HCV RNA of ≧5 log10 IU/mL at screening 4-arm comparative study (6:2 randomization VX-222: placebo) Enrollment in this dosing—ranging study was sequential 250 mg BID for 3 days 500 mg BID for 3 days 750 mg BID for 3 days 1500 mg QD for 3 days.

A short description of data set [3]: PK parameters of VX-222 in Study 101 Part C and Study 102 Part A. Type of data set: in vivo, human. As to conditions: 250 to 750 mg b.i.d. Here is the method: In Part C of Study 101, VX-222 was administered as multiple doses of 750 mg b.i.d. to treatment-naïve subjects with chronic hepatitis C for 3 days. In addition, in Part A of Study 102, VX-222 was administered as multiple doses ranging from 250 mg to 750 mg BID and 1500 mg once a day to treatment-naïve subjects with chronic hepatitis C for 3 days. The PK parameters of VX-222 assessed in Study 101 (final data) and Study 102 (preliminary data) are outlined below: […]

Data set [4] relates to Huh-7, ET replicon cells (HCV replicon I389luc-ubi-neo/NS3-3'/5.1). The data set is described as follows: Drug combination luciferase assay (4-day, MacSynergy analysis). The following applies: combination with VX-950, 4 days. Type of data set: cell-based, Hepatitis C virus. From the text:
Replicon cell lines Huh-7, ET cells derived from the Huh-7 hepatocarcinoma cell line are obtained from Dr. Ralf Bartenschlager (Bartenschlager, R. Innovation: Hepatitis C virus replicons: potential role for drug development. Nat. Rev. Drug Discov. 2002, 1, 911-916. Krieger, N.; Lohmann, V.; Bartenschlager, R. Enhancement of hepatitis C virus RNA replication by cell culture-adaptive mutations. J. Virol. 2001, 75, 4614-4624. Lohmann, V.; Korner, F.; Koch, J.-O.; Herian, U.; Theilmann, L.; Bartenschlager, R. Replication of subgenomic hepatitis C virus RNAs in a hepatoma cell line. Science. 1999, 285, 110-113.) (Reblikon GmbH, Gau-Odernheim, Germany). […]
Huh-7, ET replicon cells are seeded in white opaque 96-well cell culture microtiter plates at sub-confluent density (3×10^3 cells per well) in a volume of 100 μL media. […] Plates are read for Luciferase counts using a luminometer (Wallac MicroBeta Trilux, Perkin Elmer™, MA, USA). […]

The nature of data set [5]: Study VX-222-002: combination treatment with VX-222 and VX-950 in healthy subjects (PK, safety). As to conditions: Treatment Period 3: VX-222 and VX-950 simultaneously for 10 days, preliminary.
Data set [6] concerns genotype 1 HCV. The data set is described as follows: Study VX-222-102 Part A: HCV RNA analyses (viral load reduction). The format is in vivo, Hepatitis C virus. Here is the method: as §1
Additional results of Study VX-222-102 are described in FIGS. 2-8: Thirty-two treatment-naïve patients with chronic genotype 1 HCV infection were enrolled in the trial, including six patients in each dose group who received 250 mg of VX-222 BID, 500 mg of VX-222 BID, 750 mg of VX-222 BID, and 1,500 mg of VX-222 QD. Two patients received placebo in each of the four dosing groups, for a total of eight patients who received placebo. Part A of the trial was conducted at 10 centers in the United States, Canada and Argentina. Of the patients enrolled in the trial, 24 patients had genotype 1a HCV infection and eight patients had genotype 1b HCV infection. Six of the patients enrolled in the trial were African American, 25 were Caucasian.
as §2

Setting [7] is: 500 mg b.i.d., Day 3, HCV infected subjects.

For `CC1CCC(C(=O)N(c2cc(C#CC(C)(C)C)sc2C(=O)O)C2CCC(O)CC2)CC1` (stereo not drawn) [VX-222, 5-(3,3-Dimethylbut-1-ynyl)-3-[(trans-4-hydroxycyclohexyl)-(4-trans methylcyclohexanecarbonyl)amino]thiophene-2-carboxylic acid], in data set [1] (DUAL treatment arms (VX-222 with telaprevir alone), 2-sided 90% confidence interval), the viral breakthrough rate is more than 25%. Also, the “patients eligible (undetectable HCV RNA at Weeks 2 and 8) to stop treatment after 12 weeks” value in data set [1] (higher VX-222 dose in the QUAD regimen (with telaprevir, peginterferon/ribavirin)) was determined as 50%. Moreover, in data set [2] (setting [7]), the “AUC0-12 hr Geometric Mean” value was found to be 29848 ng·h/mL. Also, the “tmax Median” value in data set [2] (setting [7]) came to 2.5 h. Besides, the “most frequently reported adverse events (at least two patients per dose group)” value in data set [2] (blinded, pooled data for placebo or VX-222) is “diarrhea, headache, nausea, asthenia and fever”. For the same molecule, the tolerability entry in data set [2] (blinded, pooled data for placebo or VX-222, four dose groups) is “well-tolerated across all four dose groups”. For the same molecule, the “dose proportionality of exposures” value in data set [3] is on record as “increased in an approximately dose proportional manner”. For the same molecule, the “synergy class with VX-950 (MacSynergy)” value in data set [4] is “Moderated synergy (50 uM^2%-100 uM^2%: Moderated synergy)”. Besides, the “volume of synergy with VX-950 (MacSynergy)” value in data set [4] (listed as 1) is 90 uM^2% and 86 uM^2%. Moreover, the “severe or SAEs” value in data set [5] is on record as “no reported severe or SAEs”. Also, the entries for the “Viral Load Reduction at Day 4, Mean” value in data set [6] (250 mg b.i.d. for 3 days), in data set [6] (500 mg b.i.d. for 3 days) and in data set [6] (750 mg b.i.d. for 3 days) were −3.1, −3.4 and −3.2, respectively.
